Laboratory results from patent publication US7671181B2, “Polynucleotides encoding coccidian parasite casein kinase I, a chemotherapeutic target for antiprotozoal agents” (Merck Sharp & Dohme Corp., priority 2004, dated 2010).
Like-named read-outs stand apart in the source and are kept apart here.

Tests used:
TgCKIβ = TgCKIβ (Toxoplasma gondii, UniProt Q6QNM0); assay: Casein kinase assay, recombinant FLAGTgCKIβ; type: biochemical; details: recombinant enzyme; read-out: IC50 against TgCKIβ
Protocol: (§1) Protein kinase assays—Casein kinase activity was assayed essentially as described (Donald, R. G. K. et al., 2002, supra) using 96-well phosphocellulose plates (MAPH-NOB, Millipore; Billerica, Mass.) to capture ^33P-phosphorylated peptide or casein substrates. Kinase reactions were carried out in 40 μl volumes containing 25 mM Hepes, pH 7.4, 10 mM MgCl2, 20 mM β-glycerophosphate, 1 mM DTT, 250 μM substrate, 1 mg/mL BSA, 2 μM ATP, and 0.01 μM [γ-^33P]ATP (Perkin-Elmer, 3000 Ci/mmol). […] Casein (5% solution), partially dephosphorylated α-casein and β-casein were obtained from Sigma.
(§2) A variety of commercially available peptide substrates were evaluated. From Calbiochem (San Diego, Calif.): CKI substrate (RRKDLHDDEEDEAMSITA; SEQ ID NO:13); CKII substrate (RRADDSDDDDD; SEQ ID NO:14); Syntide-2 substrate (PLARTLSVAGLPGKK; SEQ ID NO:15); CaM kinase II substrate (281-291) (MHKNETVECLK; SEQ ID NO:16). From Promega: CKI substrate (DDDEESITRR; SEQ ID NO:17) and kemptide (LRRASLG; SEQ ID NO:18). From New England Biolabs (Beverly, Mass.): CKI phosphopeptide substrate (KRRRALS(p)VASLPGL; SEQ ID NO:19), and CKII substrate (RRREEETEEE; SEQ ID NO:20). PKG assays were performed with kemptide as substrate and 10 μM cGMP. CDPK was assayed with Syntide-2 substrate and in the presence of 100 μM CaCl2.
Purification of recombinant CKI enzymes—E. coli strain BL21 Origami™ (Novagen) was transformed with FLAGTgCKIα and FLAGTgCKIβ expression vectors, and colonies were expanded into 250 mL LB cultures grown at 37° C. Expression was induced with 1 mM IPTG once cultures had reached an OD600nm of 0.3-0.5, and the transformed bacteria were harvested 4-6 hours later. Cell pellets were resuspended in 15 mL of lysis buffer containing protease inhibitors and lysates prepared as described by the supplier (Bugbuster™ reagents, Novagen). The concentration of NaCl in the lysate was adjusted to 0.5 M, and 0.5 mL of FLAG-agarose beads were added (Sigma). The mixture was allowed to rock in a Nutator mixer (Becton-Dickinson; San Jose, Calif.) for 2 hours at 4° C. The slurry was then poured into an empty column and the matrix washed with 50 mL of wash buffer (50 mM Tris-HCl, pH 7.4, 0.5M NaCl, 10% glycerol, 1 mM DTT, 1 mM EDTA). Enzyme was eluted with 5 mL of 0.4 mg/mL FLAG peptide (Sigma) in NaCl-free wash buffer and concentrated with a centrifuge filtration unit (Amicon Ultra®, 10 kDa cut-off, Millipore). Protein was measured with a micro-BCA reagent (Pierce) following a TCA-sodium deoxycholate step to remove residual FLAG peptide (Brown et al., 1989, Anal. Biochem. 180:136-139). Using this procedure, and SDS-PAGE analysis, the yield of FLAGTgCKIβ was estimated as ˜200 μg of enzyme with >90% purity. Purification of FLAGTgCKIα was much less efficient with only about 1 μg of ˜10% pure enzyme obtained per 250 mL bacterial culture.
(§3) Preparations of FLAGTgCKIα and FLAGTgCKIβ were purified further on a SMART system FPLC 0.1 mL MonoQ anion exchange column (Pharmacia; New York, N.Y.) equilibrated in buffer A (50 mM Hepes, pH 7.4, 10% glycerol, 1 mM DTT) at room temperature. Samples of FLAG-affinity purified enzyme (10-100 μg) were syringe-passed through a 0.22 μm (pore-size) filter before loading on the column. A linear salt gradient was applied (0-500 mM in 3 mL at 100 μl/min) and 100 μl fractions were collected and analyzed by SDS-PAGE and for CKI activity. Fractions with peak activity were retained for further analysis. The degree of purity of the partially purified FLAGTgCKIα was estimated by densitometry of silver stained SDS-PAGE gels. A recombinant rat CKIδ enzyme used for control purposes was obtained from New England Biolabs.

rat CKIδ = molecular target: T1, rat CKIδ (Rattus norvegicus, UniProt Q06486); assay: Casein kinase assay, recombinant rat CKIδ control enzyme; type: biochemical; details: read-out: IC50 against rodent CKIδ
T1 construct: purchased New England Biolabs
T1 sequence (Q06486 1-317 limits assumed): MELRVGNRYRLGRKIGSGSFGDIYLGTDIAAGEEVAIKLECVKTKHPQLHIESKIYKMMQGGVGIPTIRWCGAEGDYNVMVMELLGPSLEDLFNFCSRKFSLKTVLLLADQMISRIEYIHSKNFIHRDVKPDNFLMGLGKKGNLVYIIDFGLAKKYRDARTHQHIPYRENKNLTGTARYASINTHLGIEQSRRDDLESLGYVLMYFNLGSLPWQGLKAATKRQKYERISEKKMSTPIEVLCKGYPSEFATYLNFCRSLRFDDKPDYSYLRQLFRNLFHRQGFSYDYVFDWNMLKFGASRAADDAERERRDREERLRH
Protocol: (§4) Protein kinase assays—Casein kinase activity was assayed essentially as described (Donald, R. G. K. et al., 2002, supra) using 96-well phosphocellulose plates (MAPH-NOB, Millipore; Billerica, Mass.) to capture ^33P-phosphorylated peptide or casein substrates. Kinase reactions were carried out in 40 μl volumes containing 25 mM Hepes, pH 7.4, 10 mM MgCl2, 20 mM β-glycerophosphate, 1 mM DTT, 250 μM substrate, 1 mg/mL BSA, 2 μM ATP, and 0.01 μM [γ-^33P]ATP (Perkin-Elmer, 3000 Ci/mmol). The reactions were initiated by the addition of enzyme and incubated at room temperature for 60 min. Casein (5% solution), partially dephosphorylated α-casein and β-casein were obtained from Sigma.
as §3, with “A recombinant rat CKIδ enzyme used for control purposes was obtained from New England Biolabs.” left out

TgCKIα = TgCKIα (Toxoplasma gondii, UniProt Q6QNM1); assay: Casein kinase assay, TgCKIα (recombinant FLAGTgCKIα or partially purified native); type: biochemical; parameters: other: recombinant or native forms of TgCKIα
Chain of TgCKIα (Q6QNM1 whole entry, looked up): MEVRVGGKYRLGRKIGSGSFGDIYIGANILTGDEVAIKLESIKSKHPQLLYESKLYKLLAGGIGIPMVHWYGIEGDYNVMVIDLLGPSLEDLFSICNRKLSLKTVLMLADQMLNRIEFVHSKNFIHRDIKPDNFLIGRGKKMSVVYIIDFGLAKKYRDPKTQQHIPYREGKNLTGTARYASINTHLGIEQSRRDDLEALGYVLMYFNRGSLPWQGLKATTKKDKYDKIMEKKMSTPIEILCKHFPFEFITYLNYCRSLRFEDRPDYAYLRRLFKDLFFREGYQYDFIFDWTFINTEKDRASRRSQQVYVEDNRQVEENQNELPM
Protocol: as §1, §2
(§5) Purification of recombinant CKI enzymes—E. coli strain BL21 Origami™ (Novagen) was transformed with FLAGTgCKIα and FLAGTgCKIβ expression vectors, and colonies were expanded into 250 mL LB cultures grown at 37° C. […] Protein was measured with a micro-BCA reagent (Pierce) following a TCA-sodium deoxycholate step to remove residual FLAG peptide (Brown et al., 1989, Anal. Biochem. 180:136-139). […]
Preparations of FLAGTgCKIα and FLAGTgCKIβ were purified further on a SMART system FPLC 0.1 mL MonoQ anion exchange column (Pharmacia; New York, N.Y.) equilibrated in buffer A (50 mM Hepes, pH 7.4, 10% glycerol, 1 mM DTT) at room temperature. […] A linear salt gradient was applied (0-500 mM in 3 mL at 100 μl/min) and 100 μl fractions were collected and analyzed by SDS-PAGE and for CKI activity. […]

T. gondii tachyzoites = assay: [3H]-uracil uptake assay of parasite growth inhibition in infected HFF cell monolayers; type: cell-based, Toxoplasma gondii; details: for IC50: Toxoplasma gondii
Description: Host cells and parasite cultures—RH strain or RH ΔHXGPRT strain tachyzoites of T. gondii were maintained by serial passage in confluent monolayers of human foreskin fibroblasts (“HFF”) as described (Roos, D. S. et al., 1994, Methods Cell Biol. 45:27-63). A modified [^3H]-uracil uptake assay (Pfefferkorn, E. R. and Pfefferkorn, L. C., 1977, J. Protozool. 24:449-453) adapted for use in 96-well scintillation plates (Cytostar-T, Amersham; Piscataway, N.J.) was used to measure parasite growth inhibition. Each well, previously seeded with HFF cells, was inoculated with T. gondii tachyzoites (2×10^4) in 200 μl of growth media containing 2 μCi [5,6]-^3H-uracil (Perkin-Elmer NEN; Boston, Mass.) and serially diluted compound. Following incubation at 37° C. for 36-48 hours, tritium-incorporation into host cell monolayers was directly counted in a microplate scintillation counter (MicroBeta, PerkinElmer-Wallac).

[1] = test system: T. gondii PKG, CKIα and -β, and CDPK1; native E. tenella CKIα; assay: Protein kinase assays, the parasite kinases tested (Table 2 panel); type: biochemical
Protocol: as §4, §2

mammalian CDK1 = mammalian CDK1 (Homo sapiens, UniProt P06493); details: Knockaert et al., 2002; cited from earlier work
Chain of mammalian CDK1 (P06493 whole entry): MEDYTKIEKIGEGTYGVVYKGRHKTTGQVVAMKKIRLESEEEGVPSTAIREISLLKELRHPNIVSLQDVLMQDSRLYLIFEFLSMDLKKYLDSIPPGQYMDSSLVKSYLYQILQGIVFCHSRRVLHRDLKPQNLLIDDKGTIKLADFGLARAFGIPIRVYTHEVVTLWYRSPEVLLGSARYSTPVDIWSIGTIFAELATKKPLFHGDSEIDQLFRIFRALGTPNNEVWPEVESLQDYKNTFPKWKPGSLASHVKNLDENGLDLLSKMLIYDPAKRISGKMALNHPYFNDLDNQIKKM
Chain of mammalian CDK1 (P14635 whole entry partner): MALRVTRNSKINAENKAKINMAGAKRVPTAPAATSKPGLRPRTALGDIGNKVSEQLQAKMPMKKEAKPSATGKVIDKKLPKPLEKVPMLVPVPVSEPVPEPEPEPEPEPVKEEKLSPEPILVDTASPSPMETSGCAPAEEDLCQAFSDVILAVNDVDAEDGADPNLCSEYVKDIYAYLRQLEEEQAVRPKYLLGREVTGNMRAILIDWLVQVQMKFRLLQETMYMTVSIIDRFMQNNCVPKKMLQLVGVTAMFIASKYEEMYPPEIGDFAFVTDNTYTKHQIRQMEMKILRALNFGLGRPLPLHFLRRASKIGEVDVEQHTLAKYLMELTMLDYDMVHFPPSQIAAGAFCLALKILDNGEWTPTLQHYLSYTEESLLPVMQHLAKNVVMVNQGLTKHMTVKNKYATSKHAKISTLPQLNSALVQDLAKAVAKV

mammalian CDK5 = mammalian CDK5 (Homo sapiens, UniProt Q00535); details: Knockaert et al., 2002; cited from earlier work
Chain of mammalian CDK5 (Q00535 whole entry): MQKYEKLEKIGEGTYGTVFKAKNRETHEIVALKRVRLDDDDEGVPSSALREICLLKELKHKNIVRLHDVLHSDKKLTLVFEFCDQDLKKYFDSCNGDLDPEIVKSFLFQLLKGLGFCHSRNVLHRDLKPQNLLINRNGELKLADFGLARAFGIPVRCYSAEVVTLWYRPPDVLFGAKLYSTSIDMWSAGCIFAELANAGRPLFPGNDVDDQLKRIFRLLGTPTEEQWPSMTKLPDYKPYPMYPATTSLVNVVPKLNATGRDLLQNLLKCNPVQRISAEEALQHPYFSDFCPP
Chain of mammalian CDK5 (Q15078 99-307 partner limits assumed): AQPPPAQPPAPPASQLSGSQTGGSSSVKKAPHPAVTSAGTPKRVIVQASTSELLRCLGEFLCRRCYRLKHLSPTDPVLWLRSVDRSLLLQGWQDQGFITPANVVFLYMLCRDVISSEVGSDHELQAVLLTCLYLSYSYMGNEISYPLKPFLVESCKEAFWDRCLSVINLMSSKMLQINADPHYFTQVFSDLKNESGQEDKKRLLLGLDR

EtCKIα = EtCKIα (Eimeria tenella, UniProt Q6QNL9); assay: Casein kinase assay, partially purified native EtCKIα; type: biochemical; details: native enzyme
Chain of EtCKIα (Q6QNL9 whole entry): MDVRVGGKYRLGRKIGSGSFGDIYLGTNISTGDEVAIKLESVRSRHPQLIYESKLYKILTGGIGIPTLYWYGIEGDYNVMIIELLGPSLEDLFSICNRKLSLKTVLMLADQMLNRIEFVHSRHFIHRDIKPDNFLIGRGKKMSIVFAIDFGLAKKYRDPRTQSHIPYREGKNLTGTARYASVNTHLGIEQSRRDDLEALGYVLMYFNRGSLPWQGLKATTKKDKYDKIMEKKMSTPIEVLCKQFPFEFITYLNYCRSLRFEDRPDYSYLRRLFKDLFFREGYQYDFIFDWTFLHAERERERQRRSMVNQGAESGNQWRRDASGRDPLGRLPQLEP
Protocol: as §4, §2
Partial purification of native EtCKIα—The inability to stably express recombinant EtCKIα in T. gondii provided impetus to purify native enzyme from E. tenella parasites (slide 5). A lysate was prepared from 2×10^10 unsporulated oocysts using previously published procedures (Gurnett, A. M. et al., 2002, supra). The first two steps of the purification scheme used were essentially scaled-up from the method described for the purification of native TgCKIα. The lysate was subjected to preparative HiLoad Q anion-exchange chromatography and fractions eluted with a NaCl gradient (0-1 M NaCl). […]

[2] = test system: CC(C)C[C@H](NC(=O)CNC(=O)[C@@H]1CCCN1C(=O)[C@H](CC(C)C)NC(=O)[C@H](CO)NC(=O)[C@H](C)NC(=O)[C@@H](NC(=O)[C@H](COP(=O)(O)O)NC(=O)[C@H](CC(C)C)NC(=O)[C@H](C)NC(=O)[C@H](CCCNC(=N)N)NC(=O)[C@H](CCCNC(=N)N)NC(=O)[C@H](CCCNC(=N)N)NC(=O)[C@@H](N)CCCCN)C(C)C)C(=O)O; assay: Casein kinase assay, TgCKIα (recombinant FLAGTgCKIα or partially purified native); type: biochemical; details: other: substrate titration, 2 μM ATP; pH 7.4; 37.0 °C
Protocol: as §1
(§6) A variety of commercially available peptide substrates were evaluated. From Calbiochem (San Diego, Calif.): CKI substrate (RRKDLHDDEEDEAMSITA; SEQ ID NO:13); CKII substrate (RRADDSDDDDD; SEQ ID NO:14); Syntide-2 substrate (PLARTLSVAGLPGKK; SEQ ID NO:15); CaM kinase II substrate (281-291) (MHKNETVECLK; SEQ ID NO:16). From Promega: CKI substrate (DDDEESITRR; SEQ ID NO:17) and kemptide (LRRASLG; SEQ ID NO:18). […]
as §5

TgCDPK1 = molecular target: T2, TgCDPK1 (Toxoplasma gondii, UniProt Q9BJF5); assay: CDPK assay with Syntide-2, T. gondii CDPK1; type: biochemical; details: read-out: IC50 against the CDPK1 enzyme
T2 construct: The TgCDPK1 open reading frame was amplified by PCR from a Toxoplasma cDNA library; made in house
T2 sequence (Q9BJF5 entry or part of it): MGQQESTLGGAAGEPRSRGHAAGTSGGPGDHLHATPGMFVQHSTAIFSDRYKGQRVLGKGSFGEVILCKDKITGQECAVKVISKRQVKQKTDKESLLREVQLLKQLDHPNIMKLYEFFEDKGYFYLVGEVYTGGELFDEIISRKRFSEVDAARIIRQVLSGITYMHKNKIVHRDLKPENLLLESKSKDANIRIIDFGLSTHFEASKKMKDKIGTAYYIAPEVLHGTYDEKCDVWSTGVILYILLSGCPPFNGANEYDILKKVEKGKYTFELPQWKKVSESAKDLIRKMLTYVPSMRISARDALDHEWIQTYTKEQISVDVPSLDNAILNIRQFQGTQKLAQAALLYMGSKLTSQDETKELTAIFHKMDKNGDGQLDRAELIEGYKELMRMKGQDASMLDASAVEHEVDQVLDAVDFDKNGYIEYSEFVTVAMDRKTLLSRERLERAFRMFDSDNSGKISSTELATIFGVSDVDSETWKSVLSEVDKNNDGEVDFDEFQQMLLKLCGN
Protocol: as §4, §2
Purification of recombinant TgCDPK1 and TgPKG—The TgCDPK1 open reading frame was amplified by PCR from a Toxoplasma cDNA library, using primers based on the published sequence (Kieschnick et al., 2001, supra): sense primer, […] (SEQ ID NO:44); and, antisense primer, […] (SEQ ID NO:45). A C-terminal FLAG epitope tag was appended to the TgCDPK1 open reading frame by an additional round of PCR amplification (KOD polymerase) and the resulting DNA fragment was sub-cloned into a tubulin promoter expression vector (Donald and Liberator, 2002, supra). […]

[3] = substrate: CC(C)C[C@H](NC(=O)CNC(=O)[C@@H]1CCCN1C(=O)[C@H](CC(C)C)NC(=O)[C@H](CO)NC(=O)[C@H](C)NC(=O)[C@@H](NC(=O)[C@H](COP(=O)(O)O)NC(=O)[C@H](CC(C)C)NC(=O)[C@H](C)NC(=O)[C@H](CCCNC(=N)N)NC(=O)[C@H](CCCNC(=N)N)NC(=O)[C@H](CCCNC(=N)N)NC(=O)[C@@H](N)CCCCN)C(C)C)C(=O)O; assay: Casein kinase assay, recombinant FLAGTgCKIβ; type: biochemical; details: other: substrate titration, 2 μM ATP; pH 7.4; 37.0 °C
Protocol: as §1, §6, §5

Molecule: NC1=NC(=O)/C(=C2\CCNC(=O)c3[nH]c(Br)cc32)N1 [Hymenialdisine]
- IC50 (TgCKIβ): 7 to 10 nM
- IC50 (rat CKIδ): 60 nM
- IC50 (TgCKIα): 7 to 10 nM

Molecule: O=C1Cc2c([nH]c3ccc([N+](=O)[O-])cc23)-c2ccccc2N1 [alsterpaullone]
- IC50 (T. gondii tachyzoites; infected HFF cell monolayers, read-out: IC50, antiparasitic activity in the whole cell assay): 1200 nM
- activity against the parasite kinases tested [1]: Neither kenpaullone nor alsterpaullone showed any activity
- potency against mammalian CDK1 relative to kenpaullone (mammalian CDK1): at least 10 fold
- potency against mammalian CDK5 relative to kenpaullone (mammalian CDK5): at least 10 fold

Molecule: CC(C)[C@H](CO)Nc1nc(Nc2cc(N)cc(Cl)c2)c2ncn(C(C)C)c2n1 [aminopurvalanol]
- IC50 (T. gondii tachyzoites; HFF, read-out: IC50 against T. gondii in the uracil uptake assay): 375 nM
- activity against / sensitivity of EtCKIα (EtCKIα): good activity
- IC50 (TgCKIα): 40 to 60 nM

Molecule: O=C1Cc2c([nH]c3ccc(Br)cc23)-c2ccccc2N1 [kenpaullone]
- activity against cultured T. gondii parasites (T. gondii tachyzoites; uracil uptake / whole cell assay): inactive
- activity against the parasite kinases tested [1]: Neither kenpaullone nor alsterpaullone showed any activity

Molecule: TgCKIα (Toxoplasma gondii)
- Vmax [2]: 26 nmol/min/mg

Molecule: indirubin-3′-monoxime
- IC50 (TgCDPK1): 175 nM
- IC50 (TgCKIα; recombinant or native forms of TgCKIα, read-out: IC50 against TgCKIα): 172 nM

B1: TgCKIβ (Toxoplasma gondii) (protein)
chain: MAHHQDTRNHTGVGPSSSIPLKDLKIAGVWKIGRKIGSGSFGDIYKGLNSQTGQEVALKVESTKAKHPQLLYEYKLLKHLQGGTGIAQVFCCETAGDHNIMAMELLGPSLEDVFNLCNRTFSLKTILLLADQFLQRVEYIHSKNFIHRDIKPDNFLLGGAGNQNTIYVIDFGLAKKFRDPKTHQHIPYRENKNLTGTARYASISAHLGSEQSRRDDLEAVGYVLMYFCRGGTLPWQGIKANTKQEKYHKIMEKKMSTPVEVLCKGYPSEFATYLHYCRSLRFEDRPDYAYLKRLFRDLYIKEGYDDSDREFDWTVKLSSRSLGPPSSRAQHVLLSQDTRTRGKRETDRPVAARSGDRERGIHFSNGNVGNPSMATNPGGLSVMVHERTSLVDQGDRGSRETSTRKEDAKDGRWPGGRFSCLPLLCRRSPTKA
- Km [3]: 79 µM
- Vmax [3]: 37 nmol/min/mg
